One data set addresses T1, UGT2B15 (Homo sapiens, UniProt P54855).
T1 construct: purchased Corning Life Sciences
T1 sequence (P54855 24-530): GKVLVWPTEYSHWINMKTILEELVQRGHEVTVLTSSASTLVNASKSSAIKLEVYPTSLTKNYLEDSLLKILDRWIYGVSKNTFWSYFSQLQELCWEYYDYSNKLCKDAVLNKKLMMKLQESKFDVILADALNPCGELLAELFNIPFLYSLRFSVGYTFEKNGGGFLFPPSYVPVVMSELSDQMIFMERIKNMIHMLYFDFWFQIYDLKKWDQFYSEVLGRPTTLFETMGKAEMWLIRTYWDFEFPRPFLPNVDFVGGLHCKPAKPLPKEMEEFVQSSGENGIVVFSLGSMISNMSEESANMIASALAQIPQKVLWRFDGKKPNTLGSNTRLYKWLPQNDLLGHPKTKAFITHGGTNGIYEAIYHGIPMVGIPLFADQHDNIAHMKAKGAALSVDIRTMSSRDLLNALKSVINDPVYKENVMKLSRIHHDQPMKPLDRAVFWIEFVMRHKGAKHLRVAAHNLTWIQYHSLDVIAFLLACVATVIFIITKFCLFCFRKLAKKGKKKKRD
The data set is described as follows: Inhibition of UGT2B15 (4-methylumbelliferyl glucuronidation) in recombinant human UGT2B15 supersomes. The class given is in vitro ADME. To be noted: recombinant UGT2B15 supersomes, 250 μM 4-methylumbelliferone, mean ± SD of triplicate; read-out: IC50 towards UGT2B15. The protocol: Although S-oxazepam is a typical substrate of UGT2B15 of human liver microsomes, authentic S-oxazepam and the corresponding glucuronide are not commercially […]. Thus, the inhibition of AS, βC, CA, LU, and ZE on the UGT2B15 activity was assessed using 4-methylumbelliferone as the nonspecific probe substrate for all UGTs except UGT1A4 [34] in recombinant human UGT2B15 supersomes.
The reaction was initiated by addition of 10 µL 5 mM UDPGA (to 100 µL total volume) followed by incubation for 120 min at 37 °C in a shaking water bath. Reactions were stopped by addition of 50 µL of ice-cold acetonitrile containing chlorpropamide (300 ng/mL) as an internal standard, and they were chilled and centrifuged (13,000 g, 15 min, 4 °C). An aliquot of 5 μL of supernatant was injected into an LC-MS/MS system. Additionally, identical parallel incubation samples containing a known UGT2B15 inhibitor amitriptyine (0–200 μM) was included as a positive control for UGT2B15.
(§1) For visual inspection, data were presented as Dixon plots.

In a further data set the target is T2, UGT1A3 (Homo sapiens, UniProt P35503).
T2 sequence (P35503 29-534): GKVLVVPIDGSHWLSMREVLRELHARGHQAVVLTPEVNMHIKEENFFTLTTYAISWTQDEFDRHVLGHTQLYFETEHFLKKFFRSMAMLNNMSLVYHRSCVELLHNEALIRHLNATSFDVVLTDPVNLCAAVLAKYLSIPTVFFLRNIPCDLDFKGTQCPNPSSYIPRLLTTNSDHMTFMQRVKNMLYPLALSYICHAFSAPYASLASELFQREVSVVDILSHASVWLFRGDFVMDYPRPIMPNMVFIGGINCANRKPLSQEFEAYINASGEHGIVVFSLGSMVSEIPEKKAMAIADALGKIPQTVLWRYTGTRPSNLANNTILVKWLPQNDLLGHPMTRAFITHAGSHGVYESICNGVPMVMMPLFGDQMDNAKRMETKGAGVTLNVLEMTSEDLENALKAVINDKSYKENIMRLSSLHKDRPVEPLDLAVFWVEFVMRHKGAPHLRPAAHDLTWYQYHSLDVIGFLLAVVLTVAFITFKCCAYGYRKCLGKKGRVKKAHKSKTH

The target of a further data set is T3, UGT2B7 (Homo sapiens, UniProt P16662).
T3 sequence (P16662 24-529): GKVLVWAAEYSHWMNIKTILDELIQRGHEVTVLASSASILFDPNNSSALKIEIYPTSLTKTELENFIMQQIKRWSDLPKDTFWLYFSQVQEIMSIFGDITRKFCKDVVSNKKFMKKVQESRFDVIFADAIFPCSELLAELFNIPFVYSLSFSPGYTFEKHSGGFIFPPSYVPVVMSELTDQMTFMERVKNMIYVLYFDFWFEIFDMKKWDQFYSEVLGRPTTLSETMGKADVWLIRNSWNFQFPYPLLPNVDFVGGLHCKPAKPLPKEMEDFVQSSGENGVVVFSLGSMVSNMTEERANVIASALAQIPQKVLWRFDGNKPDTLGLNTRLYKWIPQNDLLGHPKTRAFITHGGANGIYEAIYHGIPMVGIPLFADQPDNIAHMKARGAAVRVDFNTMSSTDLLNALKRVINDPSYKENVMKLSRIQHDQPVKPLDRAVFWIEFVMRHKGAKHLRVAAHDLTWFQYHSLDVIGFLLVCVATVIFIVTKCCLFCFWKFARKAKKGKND
The data set is described as follows: Inhibition of UGT2B7 (zidovudine-5′-glucuronidation) in human liver microsomes. In general terms: Liver microsomes are a subcellular fraction often used to study metabolism.

In another data set the target is T4, UGT1A4 (Homo sapiens, UniProt P22310).
T4 construct: pooled human liver microsomes (final concentration 0.25 mg/mL); tissue Corning Life Sciences; host or cells: pooled human liver microsomes, 150 donors
T4 sequence (P22310 29-534): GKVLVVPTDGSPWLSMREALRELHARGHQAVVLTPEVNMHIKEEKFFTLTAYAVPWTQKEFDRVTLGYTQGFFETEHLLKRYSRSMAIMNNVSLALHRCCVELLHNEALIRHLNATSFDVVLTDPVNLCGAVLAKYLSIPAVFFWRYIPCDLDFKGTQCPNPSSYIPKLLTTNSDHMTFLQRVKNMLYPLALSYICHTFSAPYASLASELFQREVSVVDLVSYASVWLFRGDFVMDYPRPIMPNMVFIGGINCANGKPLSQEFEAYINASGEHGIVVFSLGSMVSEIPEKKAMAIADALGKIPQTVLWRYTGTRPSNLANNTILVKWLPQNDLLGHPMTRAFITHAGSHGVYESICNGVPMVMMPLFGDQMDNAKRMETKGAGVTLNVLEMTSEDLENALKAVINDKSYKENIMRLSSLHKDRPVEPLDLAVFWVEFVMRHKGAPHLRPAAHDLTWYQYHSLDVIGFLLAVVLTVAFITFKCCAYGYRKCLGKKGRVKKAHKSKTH
The data set is described as follows: Inhibition of UGT1A4 (trifluoperazine-N-glucuronidation) in human liver microsomes. The class given is in vitro ADME. The conditions noted are these: 4 μM trifluoperazine, mean ± SD of triplicate, read-out: IC50 towards UGT1A4.

The target of a further data set is T5, UGT1A9 (Homo sapiens, UniProt O60656).
T5 sequence (O60656 26-530): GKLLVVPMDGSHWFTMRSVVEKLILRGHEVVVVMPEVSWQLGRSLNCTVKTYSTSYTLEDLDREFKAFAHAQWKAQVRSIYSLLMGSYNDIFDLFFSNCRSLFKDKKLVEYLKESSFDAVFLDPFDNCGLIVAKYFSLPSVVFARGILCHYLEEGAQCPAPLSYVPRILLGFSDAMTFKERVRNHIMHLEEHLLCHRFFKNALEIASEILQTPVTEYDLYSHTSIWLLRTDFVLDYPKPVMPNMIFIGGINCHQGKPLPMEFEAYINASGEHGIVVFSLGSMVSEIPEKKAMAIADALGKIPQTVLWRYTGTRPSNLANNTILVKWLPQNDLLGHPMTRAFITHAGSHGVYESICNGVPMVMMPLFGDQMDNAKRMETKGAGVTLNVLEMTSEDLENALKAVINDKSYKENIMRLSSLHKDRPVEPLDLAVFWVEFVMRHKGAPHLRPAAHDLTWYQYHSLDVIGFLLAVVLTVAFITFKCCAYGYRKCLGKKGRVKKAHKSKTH
Briefly: Inhibition of UGT1A9 (propofol-O-glucuronidation) in human liver microsomes.

Another data set has as its target T6, UGT1A1 (Homo sapiens, UniProt P22309).
T6 sequence (P22309 26-533): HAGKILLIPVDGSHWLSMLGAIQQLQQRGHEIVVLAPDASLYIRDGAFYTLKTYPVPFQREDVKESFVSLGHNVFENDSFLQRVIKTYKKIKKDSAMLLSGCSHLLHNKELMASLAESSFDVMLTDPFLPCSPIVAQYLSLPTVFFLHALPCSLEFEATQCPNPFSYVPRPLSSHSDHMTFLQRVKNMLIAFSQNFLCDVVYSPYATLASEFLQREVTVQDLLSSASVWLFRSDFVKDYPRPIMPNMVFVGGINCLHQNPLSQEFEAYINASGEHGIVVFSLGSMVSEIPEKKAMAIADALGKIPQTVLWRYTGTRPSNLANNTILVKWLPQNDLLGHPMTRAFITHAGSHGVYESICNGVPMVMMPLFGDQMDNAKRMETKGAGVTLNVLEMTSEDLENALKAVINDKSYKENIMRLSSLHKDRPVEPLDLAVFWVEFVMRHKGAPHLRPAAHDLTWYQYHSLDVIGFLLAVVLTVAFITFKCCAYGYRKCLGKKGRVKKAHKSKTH
The data set is described as follows: Ki determination on UGT1A1 activity (β-estradiol-3-glucuronidation) in human liver microsomes. The conditions noted are these: Dixon plots / nonlinear regression. The protocol: Based on the lowest IC50 value, the inhibitor constant (Ki) values of the βC for UGT1A1 were determined. […] All incubations were performed in triplicate, and the mean values were used for the analysis. Other procedures were similar to those of the reversible inhibition studies.
as §1

SMILES strings stand for the structures.

Description for UGT1A3: (§2) The formation activities of β-estradiol-3-glucuronide, chenodeoxycholic acid 24-acyl-β-D-glucuronide, trifluoperazine-N-glucuronide, imipramine-N-β-D-glucuronide, serotonin-O-glucuronide, propofol-O-glucuronide, and zidovudine-5′-glucuronide were determined to probe the activities of UGT1A1, UGT1A3, UGT1A4, UGT1A6, UGT1A9 and UGT2B7, respectively, in human liver microsomes.
(§3) In brief, the 90-µL incubation mixture, including pooled human liver microsomes (final concentration 0.25 mg/mL), 100 mM Tris buffer, 25 µg/mL alamethicin, 5 mM MgCl2, the UGT-selective substrates, and five xanthophylls (0–50 μM), were pre-incubated for 30 min on ice to allow formation of alamethicin pores. Reac2345tions were initiated by the addition of 10 μL of UDPGA (5 mM) to a final reaction volume of 0.1 mL and incubated at 37 °C for 60 min (except 30 min for UGT1A9) in a shaking water bath. After incubation, each reaction was stopped by adding 50 μL of ice-cold acetonitrile containing chlorpropamide (300 ng/mL) or theophylline (30 μg/mL or 300 μg/mL) as an internal standard. The mixtures were then centrifuged (13,000 g for 15 min at 4 °C) and 5-µL aliquots of the supernatants were injected into an LC-MS/MS system. […] All incubations were performed in triplicate, and mean values were used for analysis.
(§4) Chromatographic separations were performed on an Agilent Poroshell 120 EC-C18 column (50 mm × 4.6-mm i.d.; 2.7-μm particle size; Agilent Technologies) to quantify β-estradiol-3-glucuronide (UGT1A1), chenodeoxycholic acid 24-acyl-β-D-glucuronide (UGT1A3), trifluoperazine-N-glucuronide (UGT1A4), propofol-O-glucuronide (UGT1A9), zidovudine-5′-glucuronide (UGT2B7), and 4-methylumbelliferyl glucuronide (UGT2B15); an Agilent Poroshell 120 EC-C18 column (100 × 4.6-mm i.d.; 2.7-mm particle size) was used for quantification of serotonin-O-glucuronide (UGT1A6). The isocratic mobile phase consisted of distilled water (A) and acetonitrile containing 0.1% formic acid (B) at a ratio (v/v) of 10:90 for chenodeoxycholic acid 24-acyl-β-D-glucuronide, 30:70 for trifluoperazine-N-glucuronide and zidovudine-5′-glucuronide, 50:50 for propofol-O-glucuronide and 4-methylumbelliferyl glucuronide, 65:35 for β-estradiol-3-glucuronide, and 90:10 for serotonin-O-glucuronide, at a flow rate of 0.5 mL/min. The total run time was 4.0 min per sample for each metabolite, with the exception of serotonin-O-glucuronide (6.0 min). Peak areas for all of the analytes were automatically integrated using Analyst software (version 1.5.2, Applied Biosystems, Foster City, CA, USA).
(§5) The IC50 values were calculated via nonlinear least-squares regression analysis from plots of the logarithms of inhibitor concentration vs. the residual percentages of activities after inhibition, using WinNonlin (ver. 4.0; Pharsight, Mountain View, CA, USA).
Description for UGT1A4: as §2, §3, §4, §5
Description for UGT1A9: as §2, §3, §4, §5
Description for UGT2B7: as §2, §3, §4, §5

As usually defined, the IC50 is the concentration that inhibits the measured activity by half. As for `CN(C)CCC=C1c2ccccc2CCc2ccccc21` [Amitriptyline, amitriptyline, reference compound], at UGT2B15, the IC50 came to 69.4 ± 10.6 µM.

As to `COc1cc2c(c(OC)c1OC)-c1c(cc(OC)c(OC)c1OC)C[C@H](C)[C@H](C)C2` [Deoxyschizandrin, deoxyschizandrin], the IC50 against UGT1A3 amounted to 5.17 ± 0.7 µM.

With `O=C1Nc2ccc(Cl)cc2[C@@](C#CC2CC2)(C(F)(F)F)O1` [Efavirenz, efavirenz, reference compound], the midpoint of inhibition on UGT2B7, the IC50, lay at 37.8 ± 2.37 µM.

In the case of `C[C@@H]1CC[C@@]2(OC1)O[C@H]1C[C@H]3[C@@H]4CC[C@H]5C[C@@H](O)CC[C@]5(C)[C@H]4CC(=O)[C@]3(C)[C@H]1[C@@H]2C` [Hecogenin, hecogenin, reference compound], the IC50 at UGT1A4 was 8.07 ± 2.6 µM.

Regarding `O=C(O)c1cccnc1Nc1cccc(C(F)(F)F)c1` [Niflumic acid, niflumic acid, reference compound], the IC50 on UGT1A9 amounted to 0.39 ± 0.0256 µM.

Consider `Cc1cn(-c2cc(NC(=O)c3ccc(C)c(Nc4nccc(-c5cccnc5)n4)c3)cc(C(F)(F)F)c2)cn1` [Nilotinib, nilotinib, reference compound], for which the “Mode of inhibition of UGT1A1” value at UGT1A1 is listed as “competitive inhibition”.

(Values after PMC6272861, “In Vitro Inhibition of Human UDP-Glucuronosyl-Transferase (UGT) Isoforms by Astaxanthin, β-Cryptoxanthin, Canthaxanthin, Lutein, and Zeaxanthin: Prediction of in Vivo Dietary Supplement-Drug Interactions” (Molecules, 2016).)
